In patent US20120277161A1, “INHIBITION OF MULTIPLE CELL ACTIVATION PATHWAYS” (INTER-K PTY LIMITED, priority 2009, published 2012):

Experiments:
[1] = system: ADDP human ovarian carcinoma cell line; assay: Cell proliferation (MTT) assay, ADDP cells; type: cell-based
Protocol: (§1) 6.1 Cell Proliferation (MTT) Assay Single cell suspensions of viable trypsinised cells were seeded into 96-well tissue culture plates at a density of 2×10^3 cells per well in a volume of 100 μl of a suitable culture media supplemented with heat inactivated foetal calf serum (FCS) (e.g., Dulbecco's Modified Eagles Medium (DMEM), with 10% v/v FCS, 1% L-glutamine, 2% (v/v) Hepes, and antibiotics). A set of triplicate wells was prepared for each concentration of the peptide dendrimer being tested. Additional sample wells containing untreated cells or media alone were set up in each treatment plate and processed in parallel as reference controls. A zero-time plate of untreated cells and media-alone wells was simultaneously prepared and an MTT assay carried out on this plate at the time of addition of the kinase inhibitor (i.e., polypeptide or dendrimer) to treatment plates. All plates were cultured for 24 hours before addition of the test dendrimer.
(§2) To prepare the MTT solution 100 mg of MTT (3-(4,5-dimethylthiazolyl-2)-2,5-diphenyltetrazolium bromide) (Cat #. M-128, Sigma, St Louis Mo.), is mixed with 20 ml of PBS at pH 7.4. The resulting solution is filter sterilized (0.2 μM syringe filter) and stored at 4° C. protected from light until use. MTT substrate is cleaved in growing cells to yield a water insoluble salt. After solubilisation of the salt crystals, a coloured product is produced the measurement of which allows quantitation of the proliferative activity of the cultured cells.
(§3) Appropriate concentrations of the kinase inhibitor were prepared by dilution of freshly prepared sterile 1 mM stock solutions into cell culture media to give a final well volume of 200 μl containing 10% v/v FCS. The zero-plate was processed by addition of MTT at this time. Cell culture was continued for a further 24 or 48 hours before addition of 20 μl of MTT in PBS (5 mg/ml, 0.2 um filter sterilised). The MTT cell proliferation assay measures cell proliferation rate and, in instances where cell viability is compromised, the assay indicates a comparative reduction in cell viability. After a 3 hour incubation in the presence of MTT (5% CO2 in air at 37° C.), plates were centrifuged at 450 g for 5 minutes, supernatant was removed by gentle suction and precipitated tetrazolium salt resuspended into 150 μl DMSO:glycine (0.1M glycine, 0.1M NaCl pH 10.5) (6:1 v/v) solution. Plates were gently vortexed to complete solubilisation of crystalline material and absorbance was read at 550 nm using a microplate reader. Sample data were processed to determine the comparative growth of treated samples relative to untreated controls.

[2] = system: HT29 human colon cancer cells; assay: Cell proliferation (MTT) assay, HT29 cells; type: cell-based
Protocol: as §1, §2, §3
HT29 cells were cultured for 48 hours in the presence of selected dendrimers and proliferation of the cells was assessed by MTT assay essentially as described in Example 6.1. The results were calculated as percentage proliferation of control cells (not treated with dendrimer).

c-RAF (h) = c-RAF (h) (Homo sapiens, UniProt P04049); assay: c-RAF kinase activity assay; type: biochemical; settings: dendrimer conc. 1 μM; read-out: Percentage (%) kinase inhibition c-RAF
Protocol: (§4) In a final reaction volume of 25 μL, c-RAF (h) (5-10 mU) is incubated with 25 mM Tris pH 7.5, 0.02 mM EGTA, 0.66 mg/mL myelin basic protein, 10 mM MgAcetate and [γ-33P-ATP] (specific activity approx. 500 cpm/pmol, concentration as required). The reaction is initiated by the addition of the MgATP mix. After incubation for 40 minutes at room temperature, the reaction is stopped by the addition of 5 μL of a 3% phosphoric acid solution. 10 μL of the reaction is then spotted onto a P30 filtermat and washed three times for 5 minutes in 75 mM phosphoric acid and once in methanol prior to drying and scintillation counting.

MEK1 (h) = MEK1 (h) (Homo sapiens, UniProt Q02750); assay: MEK1 kinase activity assay; type: biochemical; settings: dendrimer conc. 1 μM; read-out: Percentage (%) kinase inhibition MEK1
Protocol: The reaction is initiated by the addition of the MgATP. After incubation for 40 minutes at room temperature, 5 μL of this incubation mix is used to initiate an ERK2 (m) assay.

PKC beta II = PKC beta II (Homo sapiens, UniProt P05771); assay: PKC kinase activity assay; type: biochemical; settings: dendrimer conc. 1 μM; read-out: Percentage (%) kinase inhibition PKC beta II
Protocol: as §4, with “[…] PKC kinase” for “25 μL, c-RAF”, “with 20” for “with 25”, “mM HEPES” for “mM Tris”, “pH 7.4, 0.03% Triton X-100, […], 0.1” for “pH 7.5, 0.02 mM EGTA, 0.66”, “mg/mL phosphatidylserine, 10 μg/mL diacylglycerol, 0.1 mg/mL histone H1 or 50 μM of the peptide ERMRPRKRQGSVRRRV (SEQ ID No. 20),” for “mg/mL myelin basic protein,”

PKC beta I = PKC beta I (Homo sapiens, UniProt P05771); assay: PKC kinase activity assay; type: biochemical; settings: dendrimer conc. 1 μM; read-out: Percentage (%) kinase inhibition PKC beta I
Protocol: as §4, with “[…] PKC kinase” for “25 μL, c-RAF”, “with 20” for “with 25”, “mM HEPES” for “mM Tris”, “pH 7.4, 0.03% Triton X-100, […], 0.1” for “pH 7.5, 0.02 mM EGTA, 0.66”, “mg/mL phosphatidylserine, 10 μg/mL diacylglycerol, 0.1 mg/mL histone H1 or 50 μM of the peptide ERMRPRKRQGSVRRRV (SEQ ID No. 20),” for “mg/mL myelin basic protein,”

PKC alpha = PKC alpha (Homo sapiens, UniProt P17252); assay: PKC kinase activity assay; type: biochemical; settings: dendrimer conc. 1 μM; read-out: Percentage (%) kinase inhibition PKC alpha
Protocol: as §4, with “[…] PKC kinase” for “25 μL, c-RAF”, “with 20” for “with 25”, “mM HEPES” for “mM Tris”, “pH 7.4, 0.03% Triton X-100, […], 0.1” for “pH 7.5, 0.02 mM EGTA, 0.66”, “mg/mL phosphatidylserine, 10 μg/mL diacylglycerol, 0.1 mg/mL histone H1 or 50 μM of the peptide ERMRPRKRQGSVRRRV (SEQ ID No. 20),” for “mg/mL myelin basic protein,”

PKB beta = PKB beta (Homo sapiens, UniProt P31751); assay: PKB kinase activity assay; type: biochemical; settings: dendrimer conc. 1 μM; read-out: Percentage (%) kinase inhibition PKB beta
Protocol: (§5) In a final reaction volume of 25 μL, PKB(h) (5-10 mU) is incubated with 8 mM MOPS pH 7.0, 0.2 mM EDTA, 30 μM GRPRTSSFAEGKK (SEQ ID No. 26), 10 mM MgAcetate and [γ-33P-ATP] (specific activity approx. 500 cpm/pmol, concentration as required). The reaction is initiated by the addition of the MgATP mix. After incubation for 40 minutes at room temperature, the reaction is stopped by the addition of 5 μL of a 3% phosphoric acid solution. 10 μL of the reaction mixture is then spotted onto a P30 filtermat and washed three times for 5 minutes in 75 mM phosphoric acid and once in methanol prior to drying and scintillation counting.

PKB gamma = PKB gamma (Homo sapiens, UniProt Q9Y243); assay: PKB kinase activity assay; type: biochemical; settings: dendrimer conc. 1 μM; read-out: Percentage (%) kinase inhibition PKB gamma
Protocol: as §5

PI3K beta = PI3K beta (Homo sapiens, UniProt P42338); assay: PI3K HTRF activity assay; type: biochemical; settings: dendrimer conc. 1 μM; read-out: Percentage (%) kinase inhibition PI3K P110β
Protocol: (§6) In a final reaction volume of 20 μL, the test PI3K is incubated in assay buffer containing 10 μM phosphatidylinositol-4,5-bisphosphate and MgATP. The reaction is initiated by the addition of the MgATP mix. After incubation for 30 minutes at room temperature, the reaction is stopped by the addition of 5 μL of stop solution containing EDTA and biotinylated phosphatidylinositol-3,4,5-trisphosphate. Finally, 5 μL of detection buffer is added (containing europium-labelled anti-GST monoclonal antibody, GST-tagged GRP1 PH domain and streptavidin-allophycocyanin). The test plate is then read in time-resolved fluorescence mode and the homogenous time-resolved fluorescence (HTRF) signal is determined according to the formula HTRF=10000×(Em665 nm/Em620 nm).

PI3K P110δ = PI3K P110δ (Homo sapiens, UniProt O00329); assay: PI3K HTRF activity assay; type: biochemical; settings: dendrimer conc. 1 μM; read-out: Percentage (%) kinase inhibition PI3K P110δ
Protocol: as §6

Chain of PKB beta (P31751 whole entry): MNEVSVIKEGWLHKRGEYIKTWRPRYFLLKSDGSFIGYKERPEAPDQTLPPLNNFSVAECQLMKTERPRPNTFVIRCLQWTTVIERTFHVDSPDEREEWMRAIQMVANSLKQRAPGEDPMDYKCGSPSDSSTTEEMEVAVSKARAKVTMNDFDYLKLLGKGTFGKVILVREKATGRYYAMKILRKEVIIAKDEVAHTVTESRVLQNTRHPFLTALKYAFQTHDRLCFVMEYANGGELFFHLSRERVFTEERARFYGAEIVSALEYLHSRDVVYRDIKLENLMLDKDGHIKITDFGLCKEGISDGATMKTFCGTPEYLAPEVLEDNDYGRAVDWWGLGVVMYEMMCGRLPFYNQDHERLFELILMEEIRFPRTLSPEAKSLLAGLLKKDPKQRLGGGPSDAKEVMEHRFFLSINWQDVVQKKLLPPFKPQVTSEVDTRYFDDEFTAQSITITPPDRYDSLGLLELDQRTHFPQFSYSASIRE
Chain of c-RAF (h) (P04049 whole entry): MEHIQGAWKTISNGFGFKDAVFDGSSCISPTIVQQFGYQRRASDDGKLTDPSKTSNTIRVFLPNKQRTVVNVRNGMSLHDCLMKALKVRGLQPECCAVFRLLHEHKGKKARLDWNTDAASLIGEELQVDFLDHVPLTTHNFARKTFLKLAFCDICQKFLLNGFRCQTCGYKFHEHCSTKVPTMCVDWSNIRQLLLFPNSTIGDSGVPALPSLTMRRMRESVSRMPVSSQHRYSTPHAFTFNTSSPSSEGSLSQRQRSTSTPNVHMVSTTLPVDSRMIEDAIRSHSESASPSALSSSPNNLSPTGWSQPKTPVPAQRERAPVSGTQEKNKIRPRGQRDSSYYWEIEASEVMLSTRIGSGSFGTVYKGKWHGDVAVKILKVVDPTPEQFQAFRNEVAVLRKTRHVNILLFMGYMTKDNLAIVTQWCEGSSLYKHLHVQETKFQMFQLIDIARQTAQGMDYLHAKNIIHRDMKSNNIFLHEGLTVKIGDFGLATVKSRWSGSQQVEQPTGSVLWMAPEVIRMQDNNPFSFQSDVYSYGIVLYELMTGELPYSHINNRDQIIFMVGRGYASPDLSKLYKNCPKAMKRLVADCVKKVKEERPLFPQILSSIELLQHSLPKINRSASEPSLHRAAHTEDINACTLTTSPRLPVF
Chain of PKB gamma (Q9Y243 whole entry): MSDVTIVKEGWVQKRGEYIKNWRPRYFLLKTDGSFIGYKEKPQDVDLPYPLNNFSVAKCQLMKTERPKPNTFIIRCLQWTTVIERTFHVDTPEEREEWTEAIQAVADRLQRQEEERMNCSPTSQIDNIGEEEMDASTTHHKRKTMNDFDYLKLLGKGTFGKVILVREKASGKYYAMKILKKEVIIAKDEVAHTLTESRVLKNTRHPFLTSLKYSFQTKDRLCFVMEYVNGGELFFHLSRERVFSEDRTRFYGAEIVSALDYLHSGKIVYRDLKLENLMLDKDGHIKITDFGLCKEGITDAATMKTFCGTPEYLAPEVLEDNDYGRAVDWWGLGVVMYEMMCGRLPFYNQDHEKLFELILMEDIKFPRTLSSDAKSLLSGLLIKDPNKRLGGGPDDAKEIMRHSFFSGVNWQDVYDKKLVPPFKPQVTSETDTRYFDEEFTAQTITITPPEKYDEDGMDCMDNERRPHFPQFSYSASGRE
Chain of MEK1 (h) (Q02750 whole entry): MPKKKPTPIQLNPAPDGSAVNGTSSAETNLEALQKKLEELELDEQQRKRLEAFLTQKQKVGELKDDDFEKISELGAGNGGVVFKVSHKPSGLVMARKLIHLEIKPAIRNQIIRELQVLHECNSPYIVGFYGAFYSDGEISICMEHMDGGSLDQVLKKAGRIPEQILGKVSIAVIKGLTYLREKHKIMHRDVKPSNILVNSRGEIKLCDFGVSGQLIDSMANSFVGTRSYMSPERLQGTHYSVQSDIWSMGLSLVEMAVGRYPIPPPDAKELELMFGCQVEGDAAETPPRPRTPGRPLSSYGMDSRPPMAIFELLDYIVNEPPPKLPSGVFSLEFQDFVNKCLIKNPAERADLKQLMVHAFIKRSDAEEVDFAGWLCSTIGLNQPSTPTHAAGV
Chain of PKC beta II (P05771 1-673 isoform P05771-2): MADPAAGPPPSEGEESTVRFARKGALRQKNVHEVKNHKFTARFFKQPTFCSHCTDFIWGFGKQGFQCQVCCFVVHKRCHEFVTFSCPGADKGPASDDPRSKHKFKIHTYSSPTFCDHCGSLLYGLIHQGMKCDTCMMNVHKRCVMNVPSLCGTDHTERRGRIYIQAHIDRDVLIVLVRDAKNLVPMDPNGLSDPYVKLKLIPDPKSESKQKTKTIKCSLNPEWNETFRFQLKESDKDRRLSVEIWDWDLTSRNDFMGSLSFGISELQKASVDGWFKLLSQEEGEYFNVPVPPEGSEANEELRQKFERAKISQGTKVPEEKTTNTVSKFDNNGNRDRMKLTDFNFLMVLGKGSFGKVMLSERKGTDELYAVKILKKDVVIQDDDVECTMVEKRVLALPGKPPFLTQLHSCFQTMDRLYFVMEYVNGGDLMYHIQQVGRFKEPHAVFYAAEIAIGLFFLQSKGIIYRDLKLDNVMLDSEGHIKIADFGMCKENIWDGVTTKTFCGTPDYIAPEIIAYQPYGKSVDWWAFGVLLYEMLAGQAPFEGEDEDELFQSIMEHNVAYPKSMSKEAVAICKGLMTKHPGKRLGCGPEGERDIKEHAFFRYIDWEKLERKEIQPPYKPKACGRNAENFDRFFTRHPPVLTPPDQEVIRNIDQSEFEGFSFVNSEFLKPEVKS
Chain of PKC beta I (P05771 whole entry): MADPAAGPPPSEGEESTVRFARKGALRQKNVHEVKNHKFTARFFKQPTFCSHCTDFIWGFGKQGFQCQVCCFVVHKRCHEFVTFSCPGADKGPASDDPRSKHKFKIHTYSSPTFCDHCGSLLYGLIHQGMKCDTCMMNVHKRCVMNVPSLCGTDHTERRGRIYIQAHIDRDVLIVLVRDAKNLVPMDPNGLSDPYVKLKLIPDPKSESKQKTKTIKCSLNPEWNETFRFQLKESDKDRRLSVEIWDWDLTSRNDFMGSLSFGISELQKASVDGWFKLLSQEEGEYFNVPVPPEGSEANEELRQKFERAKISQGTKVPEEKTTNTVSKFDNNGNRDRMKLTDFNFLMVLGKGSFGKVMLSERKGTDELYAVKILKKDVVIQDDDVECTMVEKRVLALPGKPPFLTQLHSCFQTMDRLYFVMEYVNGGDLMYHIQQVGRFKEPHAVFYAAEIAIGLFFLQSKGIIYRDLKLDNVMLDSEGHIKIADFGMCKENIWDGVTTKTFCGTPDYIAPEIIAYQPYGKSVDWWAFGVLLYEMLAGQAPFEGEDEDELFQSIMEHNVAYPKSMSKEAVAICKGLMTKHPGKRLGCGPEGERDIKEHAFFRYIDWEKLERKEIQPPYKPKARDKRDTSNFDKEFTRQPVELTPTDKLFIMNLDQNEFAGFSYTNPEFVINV

AAVALLPAVLLALLARSKAKNPLYR [IK2]
observed inhibition in combination with oxaliplatin versus calculated additive effect, ADDP cells ([1]; 5 μM or 10 μM IK2 peptide, FIGS. 7A, 7B): synergistic outcome | effect in combination with cisplatin versus calculated additive effect, ADDP cells ([1]; 30 μM IK2 peptide, FIG. 8): synergistic effect | inhibition of the growth of ADDP cancer cells in combination with cisplatin ([1]; compared to cisplatin or IK2 alone, FIG. 6): high level inhibition of the growth | inhibition of the growth of ADDP cancer cells in combination with oxaliplatin ([1]; compared to oxaliplatin or IK2 alone): high level inhibition of the growth | effect in combination with cisplatin versus calculated additive effect, HT29 cells ([2]; 30 μM IK2 peptide, FIG. 9): synergistic effect

dendrimer presenting 12 monomer units of the peptide RSKAKNPLYR [Dend 12-10(4)]
IC50 ([2]; MTT, 48 hours): 1000 nM | dendrimer concentration required for total kill, HT29 cells ([2]; MTT, 48 hours): 10 µM | inhibition of proliferation of HT29 cells ([2]; MTT, 48 hours): more effective than Dend 9-10(4)

CC(C)C[C@@H](NC(=O)[C@H]1CCCN1C(=O)[C@@H](CC(N)=O)NC(=O)[C@@H](CCCNC(=N)N)NC(=O)[C@@H](C)NC(=O)[C@@H](CCCNC(=N)N)NC(=O)[C@@H](CO)NC(=O)[C@H](N)CCCNC(=N)N)C(=O)N[C@H](Cc1ccc(O)cc1)C(=O)N[C@H](CCCNC(=N)N)C(=O)NCCCC[C@H](NC(=O)[C@H](CCCCNC(=O)[C@H](CCCCNC(=O)[C@@H](CCCNC(=N)N)NC(=O)[C@@H](Cc1ccc(O)cc1)NC(=O)[C@@H](CC(C)C)NC(=O)[C@H]1CCCN1C(=O)[C@@H](CC(N)=O)NC(=O)[C@@H](CCCNC(=N)N)NC(=O)[C@@H](C)NC(=O)[C@@H](CCCNC(=N)N)NC(=O)[C@@H](CO)NC(=O)[C@H](N)CCCNC(=N)N)NC(=O)[C@@H](CCCNC(=N)N)NC(=O)[C@@H](Cc1ccc(O)cc1)NC(=O)[C@@H](CC(C)C)NC(=O)[C@H]1CCCN1C(=O)[C@@H](CC(N)=O)NC(=O)[C@@H](CCCNC(=N)N)NC(=O)[C@@H](C)NC(=O)[C@@H](CCCNC(=N)N)NC(=O)[C@@H](CO)NC(=O)[C@H](N)CCCNC(=N)N)NC(=O)[C@H](CCCCNC(=O)[C@@H](CCCNC(=N)N)NC(=O)[C@@H](Cc1ccc(O)cc1)NC(=O)[C@@H](CC(C)C)NC(=O)[C@H]1CCCN1C(=O)[C@@H](CC(N)=O)NC(=O)[C@@H](CCCNC(=N)N)NC(=O)[C@@H](C)NC(=O)[C@@H](CCCNC(=N)N)NC(=O)[C@@H](CO)NC(=O)[C@H](N)CCCNC(=N)N)NC(=O)[C@@H](CCCNC(=N)N)NC(=O)[C@@H](Cc1ccc(O)cc1)NC(=O)[C@@H](CC(C)C)NC(=O)[C@H]1CCCN1C(=O)[C@@H](CC(N)=O)NC(=O)[C@@H](CCCNC(=N)N)NC(=O)[C@@H](C)NC(=O)[C@@H](CCCNC(=N)N)NC(=O)[C@@H](CO)NC(=O)[C@H](N)CCCNC(=N)N)C(=O)NCCCC[C@H](NC(=O)[C@H](CCCCNC(=O)[C@@H](CCCNC(=N)N)NC(=O)[C@@H](Cc1ccc(O)cc1)NC(=O)[C@@H](CC(C)C)NC(=O)[C@H]1CCCN1C(=O)[C@@H](CC(N)=O)NC(=O)[C@@H](CCCNC(=N)N)NC(=O)[C@@H](C)NC(=O)[C@@H](CCCNC(=N)N)NC(=O)[C@@H](CO)NC(=O)[C@H](N)CCCNC(=N)N)NC(=O)[C@H](CCCCNC(=O)[C@H](CCCCNC(=O)[C@@H](CCCNC(=N)N)NC(=O)[C@@H](Cc1ccc(O)cc1)NC(=O)[C@@H](CC(C)C)NC(=O)[C@H]1CCCN1C(=O)[C@@H](CC(N)=O)NC(=O)[C@@H](CCCNC(=N)N)NC(=O)[C@@H](C)NC(=O)[C@@H](CCCNC(=N)N)NC(=O)[C@@H](CO)NC(=O)[C@H](N)CCCNC(=N)N)NC(=O)[C@@H](CCCNC(=N)N)NC(=O)[C@@H](Cc1ccc(O)cc1)NC(=O)[C@@H](CC(C)C)NC(=O)[C@H]1CCCN1C(=O)[C@@H](CC(N)=O)NC(=O)[C@@H](CCCNC(=N)N)NC(=O)[C@@H](C)NC(=O)[C@@H](CCCNC(=N)N)NC(=O)[C@@H](CO)NC(=O)[C@H](N)CCCNC(=N)N)NC(=O)[C@H](CCCCNC(=O)[C@@H](CCCNC(=N)N)NC(=O)[C@@H](Cc1ccc(O)cc1)NC(=O)[C@@H](CC(C)C)NC(=O)[C@H]1CCCN1C(=O)[C@@H](CC(N)=O)NC(=O)[C@@H](CCCNC(=N)N)NC(=O)[C@@H](C)NC(=O)[C@@H](CCCNC(=N)N)NC(=O)[C@@H](CO)NC(=O)[C@H](N)CCCNC(=N)N)NC(=O)[C@@H](CCCNC(=N)N)NC(=O)[C@@H](Cc1ccc(O)cc1)NC(=O)[C@@H](CC(C)C)NC(=O)[C@H]1CCCN1C(=O)[C@@H](CC(N)=O)NC(=O)[C@@H](CCCNC(=N)N)NC(=O)[C@@H](C)NC(=O)[C@@H](CCCNC(=N)N)NC(=O)[C@@H](CO)NC(=O)[C@H](N)CCCNC(=N)N)C(=O)NCCC(N)=O
inhibition at 1 µM (c-RAF (h)): 85% | inhibition at 1 µM (MEK1 (h)): 95% | inhibition at 1 µM (PKC beta II): 77% | inhibition at 1 µM (PKC beta I): 79% | inhibition at 1 µM (PKC alpha): 53% | inhibition at 1 µM (PKB beta): 87% | inhibition at 1 µM (PKB gamma): 97% | inhibition at 1 µM (PI3K beta): 24% | inhibition at 1 µM (PI3K P110δ): 61%
